Consider one compound from publication PMC2724708, “Adenosine Kinase of T. b. rhodesiense Identified as the Putative Target of 4-[5-(4-phenoxyphenyl)-2H-pyrazol-3-yl]morpholine Using Chemical Proteomics” (PLoS Neglected Tropical Diseases, 2009).

In data set [1] the target is T1, adenosine kinase of T. b. rhodesiense (TbrAK) (Trypanosoma brucei rhodesiense, UniProt Q584S0).
T1 sequence (Q584S0 1-345): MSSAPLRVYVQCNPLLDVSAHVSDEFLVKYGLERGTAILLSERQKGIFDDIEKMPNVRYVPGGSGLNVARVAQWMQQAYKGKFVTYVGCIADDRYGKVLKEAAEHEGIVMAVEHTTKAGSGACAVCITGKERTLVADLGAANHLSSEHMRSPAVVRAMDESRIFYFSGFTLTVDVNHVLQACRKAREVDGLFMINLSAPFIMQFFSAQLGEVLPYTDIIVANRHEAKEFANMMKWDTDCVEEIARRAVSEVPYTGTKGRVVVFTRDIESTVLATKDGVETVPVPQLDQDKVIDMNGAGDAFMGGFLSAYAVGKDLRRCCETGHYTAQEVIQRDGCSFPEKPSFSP
The data set is described as follows: HPLC activity assay for TbrAK. It counts as biochemical. The procedure:
TbrAK catalyzes the ATP-dependent phosphorylation of the 5′-hydroxyl moiety of adenosine to form AMP and ADP. The activity assay was based on HPLC separation of substrate and products (adenosine, AMP, ADP, and ATP). The mobile phase consisted of 35 mM KH2PO4, 6 mM tetrabutylammonium hydrogensulfate, (pH 7.0, adjusted with KOH), 125 mM EDTA, and 1% (v/v) acetonitrile. The separation was performed isocratically at a flow-rate of 1.5 ml/min and monitored at 254 nm. The standard reaction in 75 µl total volume containing 0.5 mM ATP, 0.5 mM adenosine, 0.5 mM MgCl2, 1% DMSO in buffer E1 (20 mM Hepes, 150 mM NaCl, pH 7.0) was started with the addition of 2 µg TbrAK (final concentration 0.7 µM) and incubated at 37°C for 10 min while shaking vigorously (600 rpm). […] All reactions were stopped by adding 75 µl mobile phase. 50 µl of the sample volume were injected for analysis and the resulting ADP/ATP ratios were calculated and used as a measure of activity. For comparative reasons the activity recorded in absence of compound was set to 100%. The mean of three independent measurements are reported.

The target in data set [2] is T2, glycosomal T. b. rhodesiense glyceraldehyde-3-phosphate dehydrogenase (TbrGAPDH) (Trypanosoma brucei brucei, UniProt P22512).
T2 construct: made in house; host or cells: E. coli BL21(DE3), pET28a
T2 sequence (P22512 whole entry): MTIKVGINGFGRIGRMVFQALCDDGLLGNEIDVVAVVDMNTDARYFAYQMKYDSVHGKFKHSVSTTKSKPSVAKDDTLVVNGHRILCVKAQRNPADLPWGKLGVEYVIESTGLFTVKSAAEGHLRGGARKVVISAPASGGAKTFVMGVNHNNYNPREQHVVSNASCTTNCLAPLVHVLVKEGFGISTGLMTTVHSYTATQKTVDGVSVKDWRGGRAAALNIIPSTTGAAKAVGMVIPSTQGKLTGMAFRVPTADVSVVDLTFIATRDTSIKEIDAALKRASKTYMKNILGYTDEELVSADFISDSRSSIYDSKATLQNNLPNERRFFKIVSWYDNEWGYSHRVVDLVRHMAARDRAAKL
The data set is described as follows: Thermal stability assay (CD spectroscopy) regarding TbrGAPDH. It counts as binding. As to conditions: compound at 50 µM. How it is done:
Thermal unfolding of TbrGAPDH and TbrAK was studied by circular dichroism (CD) spectroscopy at 220 nm within the temperature range of 20–90°C using a heating rate of 40°C/h. […]
All measurements were done in a 0.5 mm cell and contained 0.1 %
DMSO and 2.5 mM EDTA to prevent enzyme activity. Thermal stability was analyzed in presence of 500 µM substrate to record the maximum stability limit, whereas compounds 1 to 5 were used at a concentration of 50 µM, being the highest concentration achievable for compound 2, to allow comparison of all compounds at the same concentration. For evaluation of the CD spectra, the buffer spectrum was subtracted from the protein CD spectrum. All thermal unfolding curves were fitted to a two-state model that had been published recently. The mean of three independent experiments are reported. […]

Details of data set [3]: method as in PMID 17949068. As to conditions: cited from earlier work.

The structures appear in SMILES notation.

As for `c1ccc(Oc2ccc(-c3cc(N4CCOCC4)[nH]n3)cc2)cc1` [compound 1, 4-[5-(4-phenoxyphenyl)-2H-pyrazol-3-yl]morpholine], the activity at 50 µM in data set [1] (50 µM compound, 0.7 µM TbrAK, 10 min, 37°C, ADP/ATP ratio, read-out: TbrAK activity in presence of compound (% of activity without compound)) came to 245 ± 3%. Further, the EC50 in data set [1] (0.5 mM ATP, 0.5 mM adenosine, 0.7 µM TbrAK, read-out: EC50 of TbrAK activation (HPLC assay)) was 38.9 ± 0.9 µM. Also, in data set [1] (10 min, pH 7, 50 µM compound, read-out: fold increase of TbrAK activity), the fold induction at 50 µM was found to be 2.5. Moreover, in data set [1] (range 1–750 µM, up to solubility limit), the “concentration dependence of the activation effect” value is given as “concentration dependent”. Besides, in data set [2], the “Tm of TbrGAPDH” value stood at 46.8 ± 0.1 °C. Besides, the “cytotoxicity / general toxicity” value in data set [3] is on record as “low cytotoxicity”.

As usually defined, the EC50 is the concentration needed to bring the measured effect to its halfway point.
